Measured values reported in patent US20230128402A1 (The Trustees of Princeton University, priority 2020, published 2023).

Target: T1, mALDH1a3 (Mus musculus, UniProt Q9JHW9)
T1 construct: made in house; host or cells: E. coli BL21-DE3, pET-Aldh1a3
T1 sequence (Q9JHW9 1-512): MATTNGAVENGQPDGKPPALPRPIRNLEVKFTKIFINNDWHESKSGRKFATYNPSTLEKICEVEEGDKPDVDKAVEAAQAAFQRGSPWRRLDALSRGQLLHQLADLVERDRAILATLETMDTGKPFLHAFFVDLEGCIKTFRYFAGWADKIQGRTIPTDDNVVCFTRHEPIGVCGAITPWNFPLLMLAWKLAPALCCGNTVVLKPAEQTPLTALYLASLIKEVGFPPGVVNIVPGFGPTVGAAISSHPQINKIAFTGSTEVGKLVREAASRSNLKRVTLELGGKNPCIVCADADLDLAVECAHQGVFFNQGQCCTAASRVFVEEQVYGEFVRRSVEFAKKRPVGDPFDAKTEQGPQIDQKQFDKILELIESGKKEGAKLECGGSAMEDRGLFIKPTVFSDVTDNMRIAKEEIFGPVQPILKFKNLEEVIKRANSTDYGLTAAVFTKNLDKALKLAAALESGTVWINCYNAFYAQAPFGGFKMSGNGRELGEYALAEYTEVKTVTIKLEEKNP
Assay: Aldh1a3 enzyme inhibition assay, recombinant mALDH1a3
Assay type: biochemical
Conditions: resorufin fluorescence, 20° C.
Text: (§1) Recombinant enzyme and inhibitor added immediately before assay. Reaction rate measured by resorufin fluorescence.

IC50 [µM] | SMILES
> 5 | CC1(C)Cc2cc(Nc3ccc4ccncc4c3)ccc2NC1=O [Compound 104, 6-(7-isoquinolylamino)-3,3-dimethyl-1,4-dihydroquinolin-2-one]
> 5 | CCc1cnccc1C(=O)Nc1ccc2c(c1F)CCC(=O)N2 [Compound 85]
0.25 to 1 | CCc1cnccc1/C=C/c1cc2c(cc1F)NC(=O)CC2 [Compound 45, 6-[(E)-2-(3-ethyl-4-pyridyl)vinyl]-7-fluoro-3,4-dihydro-1H-quinolin-2-one]
0.25 to 1 | CC1(C)Cc2cc(Nc3ncc4ccccc4n3)c(F)cc2NC1=O [Compound 108, 7-fluoro-3,3-dimethyl-6-(quinazolin-2-ylamino)-1,4-dihydroquinolin-2-one]
> 5 | CC1(C)Cc2cc(Nc3ccc4c(n3)CCCC4=O)ccc2NC1=O [Compound 127, 3,3-dimethyl-6-[(5-oxo-7,8-dihydro-6H-quinolin-2-yl)amino]-1,4-dihydroquinolin-2-one]
1 to 5 | CCc1cnccc1/C=C/c1ccc2c(c1)CC(C)(C)C(=O)N2 [Compound 43, 6-[(E)-2-(3-ethyl-4-pyridyl)vinyl]-3,3-dimethyl-1,4-dihydroquinolin-2-one]
< 0.1 | O=C1CCc2cc(NC(=O)c3ccncc3CC3CC3)c(F)cc2N1 [Compound 81, 3-(cyclopropylmethyl)-N-(7-fluoro-2-oxo-3,4-dihydro-1H-quinolin-6-yl)pyridine-4-carboxamide]
0.25 to 1 | CCc1cnc(C)cc1C(=O)Nc1ccc2c(c1)CCC(=O)N2 [Compound 56, 5-ethyl-2-methyl-N-(2-oxo-3,4-dihydro-1H-quinolin-6-yl)pyridine-4-carboxamide]
> 5 | CCc1cnccc1NC(=O)c1ccc2c(c1)CCC(=O)N2 [Compound 26, N-(3-ethyl-4-pyridyl)-2-oxo-3,4-dihydro-1H-quinoline-6-carboxamide]
0.25 to 1 | CCc1cnc(F)cc1C(=O)Nc1ccc2c(c1)CCC(=O)N2 [Compound 78, 5-ethyl-2-fluoro-N-(2-oxo-3,4-dihydro-1H-quinolin-6-yl)pyridine-4-carboxamide]
> 5 | CC1(C)Cc2cc(Nc3ccc(Cl)cn3)ccc2NC1=O [Compound 123, 6-[(5-chloro-2-pyridyl)amino]-3,3-dimethyl-1,4-dihydroquinolin-2-one]
> 5 | Cc1ccc(Nc2ccc3c(c2)CC(C)(C)C(=O)N3)nc1C [Compound 96, 6-[(5,6-dimethyl-2-pyridyl)amino]-3,3-dimethyl-1,4-dihydroquinolin-2-one]
> 5 | CC1(C)Cc2cc(Nc3cnc4ccc(C(=O)O)cc4n3)ccc2NC1=O [Compound 118, 3-[(3,3-dimethyl-2-oxo-1,4-dihydroquinolin-6-yl)amino]quinoxaline-6-carboxylic acid]
> 5 | CCc1cnccc1C(=O)Nc1ccc2c(c1)C(F)(F)C(=O)N2 [Compound 136]
0.25 to 1 | CC1(C)Cc2cc(Nc3ccc4c(Cl)cccc4n3)ccc2NC1=O [Compound 112, 6-[(5-chloro-2-quinolyl)amino]-3,3-dimethyl-1,4-dihydroquinolin-2-one]

Target: T2, ALDH1a3 (Homo sapiens, UniProt P47895)
T2 sequence (P47895 1-512): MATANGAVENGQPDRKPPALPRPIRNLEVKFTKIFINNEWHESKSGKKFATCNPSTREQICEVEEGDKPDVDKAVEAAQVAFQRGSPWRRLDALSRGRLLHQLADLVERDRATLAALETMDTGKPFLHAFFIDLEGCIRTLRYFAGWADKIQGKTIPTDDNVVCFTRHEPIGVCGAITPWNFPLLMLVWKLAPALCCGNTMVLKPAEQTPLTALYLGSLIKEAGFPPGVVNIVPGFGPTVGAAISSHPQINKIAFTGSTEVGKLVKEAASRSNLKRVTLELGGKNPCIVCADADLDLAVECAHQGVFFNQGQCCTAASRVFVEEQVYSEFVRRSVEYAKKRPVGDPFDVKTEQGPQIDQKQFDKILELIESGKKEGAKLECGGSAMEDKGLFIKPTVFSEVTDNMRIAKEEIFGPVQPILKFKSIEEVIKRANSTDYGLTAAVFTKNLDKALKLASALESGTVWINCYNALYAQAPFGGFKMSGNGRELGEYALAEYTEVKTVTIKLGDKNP
Assay: Aldh1a3 enzyme inhibition assay, recombinant hALDH1a3
Assay type: biochemical
Set-up: made in house; host or cells: E. coli BL21-DE3, pET-Aldh1a3
Conditions: resorufin fluorescence, 20° C.
Text: as §1

IC50 [µM] | SMILES
> 5 | CC1(C)Cc2cc(Nc3ccc4ccncc4c3)ccc2NC1=O [Compound 104, 6-(7-isoquinolylamino)-3,3-dimethyl-1,4-dihydroquinolin-2-one]
> 5 | CCc1cnccc1C(=O)Nc1ccc2c(c1F)CCC(=O)N2 [Compound 85]
0.25 to 1 | CCc1cnccc1/C=C/c1cc2c(cc1F)NC(=O)CC2 [Compound 45, 6-[(E)-2-(3-ethyl-4-pyridyl)vinyl]-7-fluoro-3,4-dihydro-1H-quinolin-2-one]
1 to 5 | CC1(C)Cc2cc(Nc3ncc4ccccc4n3)c(F)cc2NC1=O [Compound 108, 7-fluoro-3,3-dimethyl-6-(quinazolin-2-ylamino)-1,4-dihydroquinolin-2-one]
1 to 5 | CC1(C)Cc2cc(Nc3ccc4c(n3)CCCC4=O)ccc2NC1=O [Compound 127, 3,3-dimethyl-6-[(5-oxo-7,8-dihydro-6H-quinolin-2-yl)amino]-1,4-dihydroquinolin-2-one]
0.25 to 1 | CCc1cnccc1/C=C/c1ccc2c(c1)CC(C)(C)C(=O)N2 [Compound 43, 6-[(E)-2-(3-ethyl-4-pyridyl)vinyl]-3,3-dimethyl-1,4-dihydroquinolin-2-one]
< 0.1 | O=C1CCc2cc(NC(=O)c3ccncc3CC3CC3)c(F)cc2N1 [Compound 81, 3-(cyclopropylmethyl)-N-(7-fluoro-2-oxo-3,4-dihydro-1H-quinolin-6-yl)pyridine-4-carboxamide]
0.1 to 0.25 | CCc1cnc(C)cc1C(=O)Nc1ccc2c(c1)CCC(=O)N2 [Compound 56, 5-ethyl-2-methyl-N-(2-oxo-3,4-dihydro-1H-quinolin-6-yl)pyridine-4-carboxamide]
> 5 | CCc1cnccc1NC(=O)c1ccc2c(c1)CCC(=O)N2 [Compound 26, N-(3-ethyl-4-pyridyl)-2-oxo-3,4-dihydro-1H-quinoline-6-carboxamide]
< 0.1 | CCc1cnc(F)cc1C(=O)Nc1ccc2c(c1)CCC(=O)N2 [Compound 78, 5-ethyl-2-fluoro-N-(2-oxo-3,4-dihydro-1H-quinolin-6-yl)pyridine-4-carboxamide]
> 5 | CC1(C)Cc2cc(Nc3ccc(Cl)cn3)ccc2NC1=O [Compound 123, 6-[(5-chloro-2-pyridyl)amino]-3,3-dimethyl-1,4-dihydroquinolin-2-one]
> 5 | Cc1ccc(Nc2ccc3c(c2)CC(C)(C)C(=O)N3)nc1C [Compound 96, 6-[(5,6-dimethyl-2-pyridyl)amino]-3,3-dimethyl-1,4-dihydroquinolin-2-one]
> 5 | CC1(C)Cc2cc(Nc3cnc4ccc(C(=O)O)cc4n3)ccc2NC1=O [Compound 118, 3-[(3,3-dimethyl-2-oxo-1,4-dihydroquinolin-6-yl)amino]quinoxaline-6-carboxylic acid]
1 to 5 | CCc1cnccc1C(=O)Nc1ccc2c(c1)C(F)(F)C(=O)N2 [Compound 136]
0.25 to 1 | CC1(C)Cc2cc(Nc3ccc4c(Cl)cccc4n3)ccc2NC1=O [Compound 112, 6-[(5-chloro-2-quinolyl)amino]-3,3-dimethyl-1,4-dihydroquinolin-2-one]

Target: T2, ALDH1a3
Assay: ALDEFLUOR assay in SUM159-M1a-Aldh1a3 cells
Assay type: cell-based
Set-up: lentiviral vectors containing either the vector backbone or full-length human Aldh1a3; expressed in transfected cells; host or cells: SUM159-M1a human breast cancer cells, lentiviral pLex vector
Conditions: 100 nM; FIG. 6A
Method: Cells were counted, centrifuged and resuspended at 1,000,000 cells/mL in ALDEFLUOR™ buffer (Stemcell Technologies). ALDEFLUOR™ substrate (Stemcell Technologies, 1:200) and test compound or 1 mM DEAB were added to cell suspension and incubated at 37° C. for 45 minutes with vortexing every 15 minutes. Cells were centrifuged and resuspended in ALDEFLUOR™ buffer with DAPI at 5 μg/mL. Samples were analyzed with the BD LSR2 flow cytometry platform. Gating was performed using DEAB as a negative control.
Gating for background fluorescence was performed using 1 millimolar DEAB as a negative control.
The [inh-min]threshold was set at the lower bound of two standard deviations of control samples, while the IC50 threshold was set at 50% of the average of control samples.
An ALDEFLUOR™ assay was also used to assess the relative activity of several compounds described herein against SUM159-M1a-Aldh1a3 cells.

SMILES | inhibition of ALDH1a3 activity (percentage of ALDEFLUOR-positive cells)
CCc1cnccc1C(=O)Nc1ccc2c(c1)CCC(=O)N2 [Compound 9, 3-ethyl-N-(2-oxo-3,4-dihydro-1H-quinolin-6-yl)pyridine-4-carboxamide] | high-affinity compounds for the inhibition of ALDH1a3 activity
